Earlier results in patent US20060062848A1, “Formulation comprising itraconazole” (Nektar Therapeutics UK Limited, priority 2004, published 2006).
In brackets after ≈: the same amount, converted by molar mass. Read-outs that look alike come from different tables or passages of the source.

## CCC(C)n1ncn(-c2ccc(N3CCN(c4ccc(OCC5CO[C@](Cn6cncn6)(c6ccc(Cl)cc6Cl)O5)cc4)CC3)cc2)c1=O (mixture of isomers) [itraconazole, (±) cis-4-[4-[4-[4-[[2-(2,4-dichlorphenyl)-2-(1H-1,2,4-triazol-1-ylmethyl)-1,3-dioxolan-4-yl]methoxy]phenyl]-1-piperazinyl]phenyl]-2,4-dihydro-2-(1-methylpropyl)-3H-1,2,4-triazol-3-one]
Neutral pH
  aqueous solubility: 0.001 µg/mL (≈ 0.00142 µM)
pH 1
  aqueous solubility: 6 µg/mL (≈ 8.5 µM)
